From ChEMBL document CHEMBL4507263, “Data for DCP probe BAY-474” (2021) come the findings set out here.

One assay has as its system MKN-45. Kind of assay: Cell proliferation with […] cell line. The following applies: Homo sapiens. The format is functional.
In assay [1] the target is Myotonin-protein kinase (Homo sapiens) (UniProt Q09013). Kind of assay: DMPK (h) Millipore kinase activity assay. The settings on record: Compound concentration 1.0 uM.
The target of assay [2] is Ephrin type-A receptor 2 (Homo sapiens) (UniProt P29317). Kind of assay: EphA2 (h) Millipore kinase activity assay. The settings on record: Compound concentration 1.0 uM.
Assay [3] concerns the target Serine/threonine-protein kinase Nek2 (Homo sapiens) (UniProt P51955). Description: NEK2 (h) Millipore kinase activity assay. The settings on record: Compound concentration 1.0 uM.
In assay [4] the target is Ribosomal protein S6 kinase alpha-3 (Homo sapiens, UniProt P51812). Kind of assay: Rsk2 (h) Millipore kinase activity assay.
Chain of Ribosomal protein S6 kinase alpha-3 (P51812 whole entry): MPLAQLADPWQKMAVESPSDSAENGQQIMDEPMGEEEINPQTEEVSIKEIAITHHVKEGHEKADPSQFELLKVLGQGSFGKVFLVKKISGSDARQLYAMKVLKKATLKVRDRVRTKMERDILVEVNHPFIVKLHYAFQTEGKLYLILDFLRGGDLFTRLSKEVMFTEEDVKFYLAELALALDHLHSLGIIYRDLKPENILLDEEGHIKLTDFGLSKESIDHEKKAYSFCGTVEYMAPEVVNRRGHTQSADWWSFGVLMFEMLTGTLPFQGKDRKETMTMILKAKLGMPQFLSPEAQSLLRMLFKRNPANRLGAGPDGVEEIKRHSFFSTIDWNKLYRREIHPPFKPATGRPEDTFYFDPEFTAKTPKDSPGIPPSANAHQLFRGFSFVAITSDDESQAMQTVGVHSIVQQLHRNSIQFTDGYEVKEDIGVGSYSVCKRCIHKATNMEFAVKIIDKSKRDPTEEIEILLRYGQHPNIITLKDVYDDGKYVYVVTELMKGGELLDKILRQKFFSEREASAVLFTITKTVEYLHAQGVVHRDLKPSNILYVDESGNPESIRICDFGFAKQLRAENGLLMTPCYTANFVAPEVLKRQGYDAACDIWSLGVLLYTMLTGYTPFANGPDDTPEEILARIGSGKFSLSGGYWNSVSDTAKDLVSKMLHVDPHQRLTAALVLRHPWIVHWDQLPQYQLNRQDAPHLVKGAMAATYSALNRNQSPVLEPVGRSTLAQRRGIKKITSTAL
Assay [5] concerns the target Ribosomal protein S6 kinase alpha-2 (Homo sapiens) (UniProt Q15349). Description: Rsk3 (h) Millipore kinase activity assay. The settings on record: Compound concentration 1.0 uM.
In assay [6] the target is Ribosomal protein S6 kinase alpha-6 (Homo sapiens) (UniProt Q9UK32). Kind of assay: Rsk4 (h) Millipore kinase activity assay. The settings on record: Compound concentration 1.0 uM.
Assay [7] addresses Serine/threonine-protein kinase 33 (Homo sapiens) (UniProt Q9BYT3). Description: STK33 (h) Millipore kinase activity assay. The following applies: Compound concentration 1.0 uM.
Assay [8] concerns the target Tyrosine-protein kinase SYK (Homo sapiens) (UniProt P43405). Description: Syk (h) Millipore kinase activity assay. The following applies: Compound concentration 1.0 uM.
The target in assay [9] is Voltage-dependent N-type calcium channel subunit alpha-1B (Homo sapiens) (UniProt Q00975). Description: Inhibition of Calcium Channel N-Type at 10 µM in the Eurofins-Panlabs radioligand binding assay (Eurofins_assay_216000). The following applies: Rattus norvegicus; Compound concentration 10.0 uM.
The species entered for a further assay is Rattus norvegicus. Description: Inhibition of Glutamate, NMDA, Phencyclidine at 10 µM in the Eurofins-Panlabs radioligand binding assay (Eurofins_assay_233000). The class given is protein-complex assay. The following applies: Compound concentration 10.0 uM.
Assay [10] has as its target Adenosine receptor A3 (Homo sapiens) (UniProt P0DMS8). The settings on record: Compound concentration 10.0 uM.
Assay [11] concerns the target Estrogen receptor (Homo sapiens) (UniProt P03372). The settings on record: Compound concentration 10.0 uM.
For assay [12], the target named is Sodium-dependent serotonin transporter (Homo sapiens) (UniProt P31645). The settings on record: Compound concentration 10.0 uM.
Chain of Sodium-dependent serotonin transporter (Homo sapiens) (P31645 whole entry, looked up): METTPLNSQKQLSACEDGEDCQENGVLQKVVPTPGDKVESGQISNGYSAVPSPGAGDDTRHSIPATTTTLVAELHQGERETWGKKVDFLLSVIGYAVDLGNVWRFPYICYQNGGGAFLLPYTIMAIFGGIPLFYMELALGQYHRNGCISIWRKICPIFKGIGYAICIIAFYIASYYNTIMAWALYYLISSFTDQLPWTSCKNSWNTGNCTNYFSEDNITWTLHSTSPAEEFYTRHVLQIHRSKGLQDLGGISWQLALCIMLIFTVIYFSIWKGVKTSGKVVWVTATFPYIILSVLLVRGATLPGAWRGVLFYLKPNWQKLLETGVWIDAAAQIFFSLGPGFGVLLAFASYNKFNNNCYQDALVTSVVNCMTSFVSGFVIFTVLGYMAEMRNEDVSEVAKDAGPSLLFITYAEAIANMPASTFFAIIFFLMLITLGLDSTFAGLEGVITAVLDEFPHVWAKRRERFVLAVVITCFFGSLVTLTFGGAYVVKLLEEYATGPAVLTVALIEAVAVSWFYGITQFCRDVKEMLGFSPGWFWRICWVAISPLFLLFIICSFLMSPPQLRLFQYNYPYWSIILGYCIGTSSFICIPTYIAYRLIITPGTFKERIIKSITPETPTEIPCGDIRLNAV
Assay [13] concerns the target 5-hydroxytryptamine receptor 2C (Homo sapiens, UniProt P28335). Description: GPCRScan assay: inhibition of 5-HT2C. The arrangement: radioligand conc. used [nm] 1.0 – 2.5, parental cells HEK T.
In a further assay the target is D(1B) dopamine receptor (Homo sapiens, UniProt P21918). Description: GPCRScan assay: inhibition of D5. The arrangement: radioligand conc. used [nm] 2.0 – 3.0, parental cells HEKT.
Assay [14] addresses Mitogen-activated protein kinase kinase kinase 6 (Homo sapiens) (UniProt O95382). The following applies: Compound concentration 1000.0 nM.
The target in assay [15] is Protein-tyrosine kinase 6 (Homo sapiens) (UniProt Q13882). The settings on record: Compound concentration 1000.0 nM.
Assay [16] concerns the target Calcium/calmodulin-dependent protein kinase type 1 (Homo sapiens) (UniProt Q14012). The settings on record: Compound concentration 1000.0 nM.
For assay [17], the target named is Cyclin-dependent kinase 2 (Homo sapiens) (UniProt P24941). The settings on record: Compound concentration 1000.0 nM.
For assay [18], the target named is Cyclin-dependent kinase 4 (Homo sapiens) (UniProt P11802). The following applies: Compound concentration 1000.0 nM.
Chain of Cyclin-dependent kinase 4 (Homo sapiens) (P11802 whole entry): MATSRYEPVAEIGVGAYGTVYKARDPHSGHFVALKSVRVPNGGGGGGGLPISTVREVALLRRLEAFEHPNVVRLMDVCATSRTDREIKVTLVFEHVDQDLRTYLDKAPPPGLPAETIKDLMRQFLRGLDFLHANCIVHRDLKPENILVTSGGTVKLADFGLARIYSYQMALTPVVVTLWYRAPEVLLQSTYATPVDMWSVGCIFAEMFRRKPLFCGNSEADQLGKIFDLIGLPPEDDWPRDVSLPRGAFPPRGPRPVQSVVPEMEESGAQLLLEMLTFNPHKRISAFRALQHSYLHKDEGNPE
Assay [19] concerns the target Cyclin-dependent kinase 5 (Homo sapiens) (UniProt Q00535). The following applies: Compound concentration 1000.0 nM.
The target in assay [20] is Macrophage colony-stimulating factor 1 receptor (Homo sapiens) (UniProt P07333). The settings on record: Compound concentration 1000.0 nM.
The target in assay [21] is Tyrosine-protein kinase CSK (Homo sapiens) (UniProt P41240). The following applies: Compound concentration 1000.0 nM.
The target in assay [22] is Casein kinase I isoform epsilon (Homo sapiens) (UniProt P49674). The following applies: Compound concentration 1000.0 nM.
Assay [23] concerns the target Death-associated protein kinase 2 (Homo sapiens) (UniProt Q9UIK4). The settings on record: Compound concentration 1000.0 nM.
Assay [24] concerns the target Mitogen-activated protein kinase kinase kinase 12 (Homo sapiens) (UniProt Q12852). The settings on record: Compound concentration 1000.0 nM.
The target in assay [25] is Dual specificity tyrosine-phosphorylation-regulated kinase 1B (Homo sapiens) (UniProt Q9Y463). The settings on record: Compound concentration 1000.0 nM.
Chain of Dual specificity tyrosine-phosphorylation-regulated kinase 1B (Homo sapiens) (Q9Y463 whole entry, looked up): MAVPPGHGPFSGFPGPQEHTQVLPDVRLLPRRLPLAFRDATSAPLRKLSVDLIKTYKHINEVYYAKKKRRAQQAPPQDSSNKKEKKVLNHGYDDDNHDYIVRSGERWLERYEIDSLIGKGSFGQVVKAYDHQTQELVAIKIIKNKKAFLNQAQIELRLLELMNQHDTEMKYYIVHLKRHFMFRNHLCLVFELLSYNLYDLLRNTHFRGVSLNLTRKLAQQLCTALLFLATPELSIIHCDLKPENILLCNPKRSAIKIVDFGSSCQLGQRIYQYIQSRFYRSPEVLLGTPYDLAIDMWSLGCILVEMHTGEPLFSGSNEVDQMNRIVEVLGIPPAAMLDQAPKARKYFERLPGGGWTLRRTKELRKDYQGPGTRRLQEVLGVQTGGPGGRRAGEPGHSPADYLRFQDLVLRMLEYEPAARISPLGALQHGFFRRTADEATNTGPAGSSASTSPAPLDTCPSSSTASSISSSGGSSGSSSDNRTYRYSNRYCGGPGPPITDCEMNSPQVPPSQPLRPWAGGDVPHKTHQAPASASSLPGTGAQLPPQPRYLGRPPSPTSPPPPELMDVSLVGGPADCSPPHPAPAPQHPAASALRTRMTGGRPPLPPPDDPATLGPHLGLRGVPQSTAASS
Assay [26] has as its system Epidermal growth factor receptor (Homo sapiens), P00533 [L858R]. The following applies: Compound concentration 1000.0 nM.
The target in assay [27] is Ephrin type-A receptor 3 (Homo sapiens) (UniProt P29320). The following applies: Compound concentration 1000.0 nM.
Assay [28] relates to Receptor-type tyrosine-protein kinase FLT3 (Homo sapiens), P36888 [D835V]. The following applies: Compound concentration 1000.0 nM.
Assay [29] has as its target Glycogen synthase kinase-3 beta (Homo sapiens) (UniProt P49841). The following applies: Compound concentration 1000.0 nM.
Assay [30] addresses Homeodomain-interacting protein kinase 2 (Homo sapiens) (UniProt Q9H2X6). The following applies: Compound concentration 1000.0 nM.
The target in assay [31] is Inhibitor of nuclear factor kappa-B kinase subunit beta (Homo sapiens) (UniProt O14920). The settings on record: Compound concentration 1000.0 nM.
Assay [32] concerns the target Interleukin-1 receptor-associated kinase 1 (Homo sapiens) (UniProt P51617). The settings on record: Compound concentration 1000.0 nM.
The target in assay [33] is Leucine-rich repeat serine/threonine-protein kinase 2 (Homo sapiens) (UniProt Q5S007). The following applies: Compound concentration 1000.0 nM.
The target of assay [34] is Tyrosine-protein kinase Lyn (Homo sapiens) (UniProt P07948). The following applies: Compound concentration 1000.0 nM.
Assay [35] has as its target Dual specificity mitogen-activated protein kinase kinase 6 (Homo sapiens) (UniProt P52564). The settings on record: Compound concentration 1000.0 nM.
Assay [36] deals with Serine/threonine-protein kinase 26 (Homo sapiens) (UniProt Q9P289). The following applies: Compound concentration 1000.0 nM.
Chain of Serine/threonine-protein kinase 26 (Homo sapiens) (Q9P289 2-416 limits assumed): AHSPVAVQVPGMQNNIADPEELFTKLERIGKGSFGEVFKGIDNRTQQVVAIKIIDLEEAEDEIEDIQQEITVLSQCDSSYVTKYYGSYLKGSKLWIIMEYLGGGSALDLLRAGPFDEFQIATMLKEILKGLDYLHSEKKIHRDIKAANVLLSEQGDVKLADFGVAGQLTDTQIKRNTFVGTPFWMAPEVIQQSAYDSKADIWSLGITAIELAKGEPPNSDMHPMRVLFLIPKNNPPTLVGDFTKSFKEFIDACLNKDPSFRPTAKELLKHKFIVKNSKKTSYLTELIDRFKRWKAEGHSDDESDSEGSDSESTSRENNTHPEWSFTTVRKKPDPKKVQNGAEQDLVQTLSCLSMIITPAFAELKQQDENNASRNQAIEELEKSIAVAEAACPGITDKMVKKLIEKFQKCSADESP
In assay [37] the target is Platelet-derived growth factor receptor beta (Homo sapiens) (UniProt P09619). The settings on record: Compound concentration 1000.0 nM.
Assay [38] concerns the target 3-phosphoinositide-dependent protein kinase 1 (Homo sapiens) (UniProt O15530). The following applies: Compound concentration 1000.0 nM.
In assay [39] the target is Phosphatidylinositol 5-phosphate 4-kinase type-2 beta (Homo sapiens) (UniProt P78356). The following applies: Compound concentration 1000.0 nM.
The target of assay [40] is Tyrosine-protein kinase Srms (Homo sapiens) (UniProt Q9H3Y6). The following applies: Compound concentration 1000.0 nM.
The target of assay [41] is SRSF protein kinase 3 (Homo sapiens) (UniProt Q9UPE1). The settings on record: Compound concentration 1000.0 nM.
Chain of SRSF protein kinase 3 (Homo sapiens) (Q9UPE1 whole entry): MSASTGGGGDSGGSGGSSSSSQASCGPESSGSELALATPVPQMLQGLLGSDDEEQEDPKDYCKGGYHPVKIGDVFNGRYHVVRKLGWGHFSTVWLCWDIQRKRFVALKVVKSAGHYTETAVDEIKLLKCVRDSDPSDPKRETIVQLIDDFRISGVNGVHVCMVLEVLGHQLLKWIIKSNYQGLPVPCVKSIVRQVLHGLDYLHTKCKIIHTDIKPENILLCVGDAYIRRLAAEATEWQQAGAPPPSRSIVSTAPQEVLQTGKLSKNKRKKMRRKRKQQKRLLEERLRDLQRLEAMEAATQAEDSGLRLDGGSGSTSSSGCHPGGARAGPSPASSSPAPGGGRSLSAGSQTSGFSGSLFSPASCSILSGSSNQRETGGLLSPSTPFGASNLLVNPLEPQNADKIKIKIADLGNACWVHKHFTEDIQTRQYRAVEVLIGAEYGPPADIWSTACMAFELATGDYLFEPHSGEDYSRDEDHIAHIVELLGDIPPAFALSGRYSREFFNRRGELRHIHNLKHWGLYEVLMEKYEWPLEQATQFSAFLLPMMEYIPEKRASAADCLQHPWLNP
The target in assay [42] is Mitogen-activated protein kinase kinase kinase 20 (Homo sapiens) (UniProt Q9NYL2). The settings on record: Compound concentration 1000.0 nM.
Assay [43] deals with 5-hydroxytryptamine receptor 5A (Homo sapiens) (UniProt P47898). The following applies: Compound concentration 10.0 uM.

pIC50, pKi: −log10 of the molar value. Calls of active or inactive are those of the source. No cut-off for these calls is given here.

The IC90 is the point of the concentration-response curve where the effect stands at 90%. For orientation: inhibition means the drop in the measured response relative to a control, in per cent. As a reminder, the pIC50 is the negative decadic logarithm of the IC50, by convention in mol/L. A higher pIC50 goes with a low IC50. As a reminder, the pKi is the negative decadic logarithm of the Ki, by convention in mol/L.

Chain of Homeodomain-interacting protein kinase 2 (Homo sapiens) (Q9H2X6 whole entry, looked up): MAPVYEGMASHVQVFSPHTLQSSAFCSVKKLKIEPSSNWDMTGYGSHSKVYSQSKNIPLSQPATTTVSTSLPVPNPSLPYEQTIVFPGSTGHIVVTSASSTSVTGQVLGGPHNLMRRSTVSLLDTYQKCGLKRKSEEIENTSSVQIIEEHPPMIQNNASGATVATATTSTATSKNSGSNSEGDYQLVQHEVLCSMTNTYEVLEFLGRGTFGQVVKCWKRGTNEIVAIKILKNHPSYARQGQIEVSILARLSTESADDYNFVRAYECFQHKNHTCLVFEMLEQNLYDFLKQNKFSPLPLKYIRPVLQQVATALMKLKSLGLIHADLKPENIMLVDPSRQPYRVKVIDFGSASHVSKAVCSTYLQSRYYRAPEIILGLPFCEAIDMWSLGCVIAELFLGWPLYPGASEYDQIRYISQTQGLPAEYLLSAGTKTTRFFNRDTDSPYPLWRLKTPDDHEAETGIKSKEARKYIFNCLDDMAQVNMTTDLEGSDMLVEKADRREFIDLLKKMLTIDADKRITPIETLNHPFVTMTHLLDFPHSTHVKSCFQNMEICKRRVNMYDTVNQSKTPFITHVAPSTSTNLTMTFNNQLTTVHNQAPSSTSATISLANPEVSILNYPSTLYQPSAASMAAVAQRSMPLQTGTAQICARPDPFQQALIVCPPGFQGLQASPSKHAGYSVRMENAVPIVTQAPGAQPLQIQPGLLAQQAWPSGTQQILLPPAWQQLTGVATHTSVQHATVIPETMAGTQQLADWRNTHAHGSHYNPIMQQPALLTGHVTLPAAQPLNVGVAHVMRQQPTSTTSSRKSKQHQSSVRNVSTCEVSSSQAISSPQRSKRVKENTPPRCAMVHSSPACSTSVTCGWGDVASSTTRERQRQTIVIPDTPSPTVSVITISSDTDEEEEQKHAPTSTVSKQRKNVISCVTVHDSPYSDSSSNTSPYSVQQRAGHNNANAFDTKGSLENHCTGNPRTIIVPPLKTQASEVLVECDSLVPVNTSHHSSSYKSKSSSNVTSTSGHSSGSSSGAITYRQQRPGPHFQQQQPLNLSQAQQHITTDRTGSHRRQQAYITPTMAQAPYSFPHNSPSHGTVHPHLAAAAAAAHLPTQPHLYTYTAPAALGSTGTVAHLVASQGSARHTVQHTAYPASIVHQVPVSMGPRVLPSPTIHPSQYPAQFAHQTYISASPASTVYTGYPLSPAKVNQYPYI
Chain of Calcium/calmodulin-dependent protein kinase type 1 (Homo sapiens) (Q14012 whole entry, looked up): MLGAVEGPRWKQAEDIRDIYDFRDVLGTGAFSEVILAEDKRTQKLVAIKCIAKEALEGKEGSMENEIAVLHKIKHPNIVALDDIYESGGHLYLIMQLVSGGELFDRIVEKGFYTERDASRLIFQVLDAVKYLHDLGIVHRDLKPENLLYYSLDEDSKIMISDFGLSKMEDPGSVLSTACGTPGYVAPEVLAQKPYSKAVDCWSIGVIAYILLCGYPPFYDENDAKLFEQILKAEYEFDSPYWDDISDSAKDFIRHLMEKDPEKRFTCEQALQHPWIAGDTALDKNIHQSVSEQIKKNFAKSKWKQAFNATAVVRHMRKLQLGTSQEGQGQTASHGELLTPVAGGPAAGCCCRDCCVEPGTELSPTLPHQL

Consider `CC1=C(C#N)C(c2ccc3[nH]nc(C)c3c2)C(C#N)=C(C)N1` [BAY-474], for which the IC90 in the assay on MKN-45 was 0.024 µM (active). The inhibition in assay [1] is 3%; in assay [2] it was 13%; in [3] it was -5%; in assay [4] (Compound concentration 1.0 uM) it was 46%; in [5], 51%; in assay [6], 52%. The inhibition in assay [7] is 2%; in assay [8], 8%; in assay [9], 6%; in the assay filed under Rattus norvegicus, 4%; in assay [10], 13%; in assay [11] it was 2%. For the same compound, the inhibition in assay [12] was 9%. The same compound gave a pIC50 in assay [4] of 6.05.
For the compound `CC1=C(C#N)[C@@H](c2ccc3[nH]nc(C)c3c2)C(C#N)=C(c2ccc(Cl)cc2)N1` [BAY-827], the pKi (in [13]; at D(1B) dopamine receptor) was 5.00 throughout. Besides, the residual activity was 83.2% in assay [14]; 100% in [15]; 100% in assay [16]; 100% in assay [17]; 100% in assay [18]; 100% in assay [19]. Further, the residual activity in assay [20] was 100%; in [21], 100%; in assay [22] it was 91.7%; in assay [23], 100%; in assay [24], 72.2%; in assay [25], 50.1%. Also, the residual activity was 89.5% in assay [26]; 100% in assay [27]; 89.7% in [28]; 69.6% in assay [29]; 86.1% in [30]; 100% in assay [31]. Also, the residual activity in assay [32] was 100%; in assay [33], 91.7%; in assay [34] it was 96.8%; in [35], 100%; in assay [36], 100%; in assay [37], 100%. The residual activity in assay [38] was 98.2%; in assay [39], 69.3%; in assay [40], 92.7%; in assay [41], 100%; in [42], 93.6%. Besides, in assay [43], the inhibition was 4.53%.
